Ends that are not written are not given here.
B1: anti-CD47 monoclonal antibody, clone B6H12 (BD Pharmingen) (antibody)
chain: EVQLVESGGDLVKPGGSLKLSCAASGFTFSGYGMSWVRQTPDKRLEWVATITSGGTYTYYPDSVKGRFTISRDNAKNTLYLQIDSLKSEDTAIYFCARSLAGNAMDYWGQGTSVTVSSGGGGSGGGGSGGGGSDIVMTQSPATLSVTPGDRVSLSCRASQTISDYLHWYQQKSHESPRLLIKFASQSISGIPSRFSGSGSGSDFTLSINSVEPEDVGVYYCQNGHGFPRTFGGGTKLEIK

What was measured:
[1] = tested on: clone 18 cells; experiment: Modulation of drug cytotoxicity by added TSP-1, mimetic peptides, antibody or MDR inhibitor (MTT viability); format: cell-based, human; settings: for Effect on taxol resistance / taxol cytotoxicity in clone 18: added to culture with various taxol concentrations, MTT
[2] = tested on: M2182tTA; experiment: Drug sensitivity by MTT assay (IC50); format: cell-based, human; settings: mean ± SD of three determinations
[3] = tested on: Clone 18; experiment: Drug sensitivity by MTT assay (IC50); format: cell-based, human; settings: for IC50: MTT assay, mean ± SD of three determinations; for Fold of resistance (Clone 18/M2182tTA): IC50 of clone 18 divided with IC50 of M2182tTA; for Killing of clone 18 cells compared with parental cells: non-taxane drugs, Table 1
[4] = tested on: M2182tTA cells; experiment: Preliminary taxol exposure of plated cells before selection of resistant clones; format: cell-based, human; settings: 5 days of exposure to 5 nM taxol; preliminary experiments
[5] = tested on: M2182tTA cells; experiment: Modulation of drug cytotoxicity by added TSP-1, mimetic peptides, anti-CD47 antibody or pertussis toxin (MTT viability); format: cell-based, human
[6] = tested on: clone 18 cells; experiment: TUNEL assay of taxol-induced apoptosis; format: cell-based, human; settings: taxol plus 7.5 μg/ml purified TSP-1, 3 days
[7] = target: CD47 receptor (integrin-associated protein) (human, UniProt Q08722 19-323); experiment: cell-based or functional assay
[8] = adriamycin, etoposide, vinblastine, vincristine, epothilone B

Row | Molecule | Effect on taxol resistance / taxol cytotoxicity in clone 18 [1] | IC50 ([2]; Homo sapiens) | IC50 ([3]; Homo sapiens) | Fold of resistance (Clone 18/M2182tTA) [3] | Killing of clone 18 cells compared with parental cells [3] | also measured
1 | KRFYGGMWKK [4NGG] | no effect |  |  |  |  | 
2 | CC(=O)O[C@@]12CO[C@@H]1C[C@H](O)[C@@]1(C)C(=O)[C@H](O)C3=C(C)[C@@H](OC(=O)[C@H](O)[C@@H](NC(=O)OC(C)(C)C)c4ccccc4)C[C@@](O)([C@@H](OC(=O)c4ccccc4)[C@H]21)C3(C)C [Docetaxel] |  | 2.66 ± 0.11 nM | 6.93 ± 0.05 nM | 2.62 |  | 
3 | KRFYVVMWKK [4N1K] | dose-dependent partial reversal |  |  |  |  | 
4 | CC[C@]1(O)C[C@H]2CN(CCc3c([nH]c4ccccc34)[C@@](C(=O)OC)(c3cc4c(cc3OC)N(C=O)[C@H]3[C@@](O)(C(=O)OC)[C@H](OC(C)=O)[C@]5(CC)C=CCN6CC[C@]43[C@@H]65)C2)C1 [Vincristine, vincristine] |  |  | 12 ± 0.42 nM | 1.09 | No evidence of reduced killing | 
5 | COc1cc([C@@H]2c3cc4c(cc3[C@@H](O[C@@H]3O[C@@H]5CO[C@@H](C)O[C@H]5[C@H](O)[C@H]3O)[C@H]3COC(=O)[C@H]23)OCO4)cc(OC)c1O [Etoposide, etoposide] |  | 800 ± 30 nM | 650 ± 60 nM | 0.81 | No evidence of reduced killing | 
6 | GVITRIR (human) [ABT-510] | no effect |  |  |  |  | 
7 | C/C(=C\c1csc(C)n1)[C@@H]1C[C@@H]2O[C@]2(C)CCC[C@H](C)[C@H](O)[C@@H](C)C(=O)C(C)(C)[C@@H](O)CC(=O)O1 [Epothilone B] |  |  |  | 0.9 | No evidence of reduced killing | IC50 [2]: 0.75 ± 0.35 nM; IC50 [3]: 0.68 ± 0.21 nM
8 | COc1cccc2c1C(=O)c1c(O)c3c(c(O)c1C2=O)C[C@@](O)(C(=O)CO)C[C@@H]3O[C@H]1C[C@H](N)[C@H](O)[C@H](C)O1 [Adriamycin, adriamycin] |  | 0.15 ± 0.0099 µg/mL | 0.133 ± 0.0071 µg/mL | 0.83 | No evidence of reduced killing | 
9 | CC(=O)O[C@H]1C(=O)[C@@]2(C)[C@H]([C@H](OC(=O)c3ccccc3)[C@]3(O)C[C@H](OC(=O)[C@H](O)[C@@H](NC(=O)c4ccccc4)c4ccccc4)C(C)=C1C3(C)C)[C@]1(OC(C)=O)CO[C@@H]1C[C@@H]2O [Taxol, Paclitaxel] |  | 7.2 ± 0.11 nM | 17.5 ± 0.18 nM | 2.45 |  | Fold of resistance (Clone 18/M2182tTA) ([3]; listed as taxol): approximately two and a half-fold; Surviving M2182tTA cells [4]: no surviving M2182tTA cells
10 | TSP-1: TSP-1 purified from human platelets, purchased from EMD Biosciences | dose-dependent partial reversal |  |  |  |  | Survival and apoptosis with agent alone ([1]; TSP-1 alone at the dosage added to clone 18 cultures): only limited ability to reduce survival and induce apoptosis; Effect on killing of clone 18 cells by other chemotherapeutic agents [1, 8]: no effects; Effect on taxol-mediated killing of naïve M2182tTA cells ([5]; added to culture with taxol, MTT): reduced survival; Effect on sensitivity of M2182tTA cells to other chemotherapeutic drugs [5, 8]: sensitization was not observed; Taxol-induced apoptosis [6]: dramatically and synergistically increased
11 | CC[C@]1(O)C[C@@H]2CN(CCc3c([nH]c4ccccc34)[C@@](C(=O)OC)(c3cc4c(cc3OC)N(C)[C@H]3[C@@](O)(C(=O)OC)[C@H](OC(C)=O)[C@]5(CC)C=CCN6CC[C@]43[C@@H]65)C2)C1 [Vinblastine, vinblastine] |  | 7.5 ± 0.18 nM | 7 ± 0.21 nM | 0.93 | No evidence of reduced killing | 
12 | B1 |  |  |  |  |  | viability of M2182tTA cells to taxol treatment (MTT assay, 10 ug/ml antibody) [7]: 2.2 fold

Source: patent US20060188508A1, “Methods and compositions for modulating angiogenesis” (priority 2005, published 2006)
